Experimental data reported in PubChem BioAssay AID330 (DTP/NCI, 2004).
Several values for one entry are separate records, joined by “and”; a condition that tells them apart may be missing. Equal entries are not always repeated. Inconclusive results and toxic doses are left out. The calls were made as follows: active = survival T/C of 150% or more; inactive = T/C below 125% in these data.

Tested on: P388 leukemia ip, CD2F1 mice, survival T/C
Assay: NCI In Vivo Anticancer Drug Screen. Data for tumor model P388 Leukemia (intraperitoneal) in CD2F1 (CDF1) mice
Conditions: endpoint: median survival time, higher = longer survival
In short: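 Mice carrying the transplanted tumor received test compound or vehicle. Survival was recorded in each group, and the value is the treated-group measurement divided by that of the vehicle-treated control group.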

[1] = dose: 60.0 mg/kg/injection, schedule: Q01DX005 (ip), vehicle: saline with Tween-80
[2] = dose: 120.0 mg/kg/injection, schedule: Q01DX005 (ip), vehicle: saline with Tween-80
[3] = dose: 240.0 mg/kg/injection, schedule: Q01DX005 (ip), vehicle: saline with Tween-80
[4] = dose: 100.0 mg/kg/injection, schedule: Q04DX003 (ip), vehicle: saline with Tween-80
[5] = dose: 25.0 mg/kg/injection, schedule: Q01DX009 (ip), vehicle: other
[6] = dose: 50.0 mg/kg/injection, schedule: Q01DX009 (ip), vehicle: other
[7] = dose: 100.0 mg/kg/injection, schedule: Q01DX009 (ip), vehicle: other
[8] = dose: 200.0 mg/kg/injection, schedule: Q01DX009 (ip), vehicle: other
[9] = dose: 400.0 mg/kg/injection, schedule: Q01DX009 (ip), vehicle: other
[10] = dose: 100.0 mg/kg/injection, schedule: Q01DX009 (ip), vehicle: saline with Tween-80
[11] = dose: 50.0 mg/kg/injection, schedule: Q01DX005 (ip), vehicle: saline with Tween-80
[12] = dose: 100.0 mg/kg/injection, schedule: Q01DX005 (ip), vehicle: saline with Tween-80
[13] = dose: 200.0 mg/kg/injection, schedule: Q01DX005 (ip), vehicle: saline with Tween-80
[14] = dose: 50.0 mg/kg/injection, schedule: Q01DX009 (ip), vehicle: saline with Tween-80
[15] = dose: 50.0 mg/kg/injection, schedule: Q01DX005 (ip), vehicle: Klucel (hydroxypropylcellulose) (HPC)
[16] = dose: 100.0 mg/kg/injection, schedule: Q01DX005 (ip), vehicle: Klucel (hydroxypropylcellulose) (HPC)
[17] = dose: 200.0 mg/kg/injection, schedule: Q01DX005 (ip), vehicle: Klucel (hydroxypropylcellulose) (HPC)
[18] = dose: 6.25 mg/kg/injection, schedule: Q01DX009 (ip), vehicle: saline with Tween-80
[19] = dose: 12.5 mg/kg/injection, schedule: Q01DX009 (ip), vehicle: saline with Tween-80

Measured: T/C

O=C1C2CCC(N1CCc1ccccc1)n1c(=O)n(-c3ccccc3)c(=O)n12 (stereo not given)
inactive: dose: 100.0 mg/kg/injection, schedule: Q01DX001 (ip), vehicle: Klucel (hydroxypropylcellulose) (HPC) 99 % of control | dose: 200.0 mg/kg/injection, schedule: Q01DX001 (ip), vehicle: Klucel (hydroxypropylcellulose) (HPC) 104 % of control | dose: 400.0 mg/kg/injection, schedule: Q01DX001 (ip), vehicle: Klucel (hydroxypropylcellulose) (HPC) 97 % of control

Cc1oc2ccccc2c(=O)c1Cn1nnc2ccccc21
inactive: [1] 103 % of control | [2] 103 % of control | [3] 94 % of control

Cc1ccc2oc3c(=O)c4ccccc4c(=O)c=3oc2c1
inactive: [4] 90 % of control | dose: 200.0 mg/kg/injection, schedule: Q04DX003 (ip), vehicle: saline with Tween-80 89 % of control | dose: 400.0 mg/kg/injection, schedule: Q04DX003 (ip), vehicle: saline with Tween-80 90 % of control

Cc1ccc(S(=O)(=O)NCCC(=O)Nc2ccccc2)cc1
inactive: [5] 102 % of control | [6] 103 % of control | [7] 103 % of control | [8] 102 % of control | [9] 96 % of control

CCC1CCC2CCCCN2CO1 (stereo not given)
inactive: dose: 12.5 mg/kg/injection, schedule: Q01DX005 (ip), vehicle: saline 101 % of control | dose: 25.0 mg/kg/injection, schedule: Q01DX005 (ip), vehicle: saline 118 % of control | dose: 50.0 mg/kg/injection, schedule: Q01DX005 (ip), vehicle: saline 114 % of control and 123 % of control | dose: 100.0 mg/kg/injection, schedule: Q01DX005 (ip), vehicle: saline 114 % of control and 121 % of control

O=c1nnc(O)c2ccn(O)cc1-2
inactive: [1] 99 % of control | [2] 103 % of control | [3] 99 % of control

CC/S(=N\S(=O)(=O)c1ccc(C)cc1)c1ccccc1 (stereo not given)
inactive: [10] 100 % of control | dose: 200.0 mg/kg/injection, schedule: Q01DX009 (ip), vehicle: saline with Tween-80 109 % of control | dose: 400.0 mg/kg/injection, schedule: Q01DX009 (ip), vehicle: saline with Tween-80 100 % of control

CC1=NN(c2ccccc2)C(=O)/C1=C(\[O-])c1ccccc1.CC1=NN(c2ccccc2)C(=O)/C1=C(\[O-])c1ccccc1.[Co+2]
inactive: dose: 15.0 mg/kg/injection, schedule: Q01DX005 (ip), vehicle: saline with Tween-80 100 % of control | dose: 30.0 mg/kg/injection, schedule: Q01DX005 (ip), vehicle: saline with Tween-80 102 % of control | [1] 102 % of control and 109 % of control

N/C(=N\OC(=O)NC(Cl)=C(Cl)Cl)c1cc(C(F)(F)F)cc(C(F)(F)F)c1
inactive: [11] 102 % of control | [12] 102 % of control | [13] 100 % of control

CCOC(=O)C(=C/C=C/N(C)C)C(=O)OCC
inactive: dose: 100.0 mg/kg/injection, schedule: Q01DX001 (ip), vehicle: saline 100 % of control | dose: 200.0 mg/kg/injection, schedule: Q01DX001 (ip), vehicle: saline 104 % of control

C#CCn1cnc2c(=S)nc[nH]c21
inactive: dose: 180.0 mg/kg/injection, schedule: Q01DX009 (ip), vehicle: saline with Tween-80 87 % of control

CC(=O)c1ccc2ccccc2n1
inactive: [5] 102 % of control | [6] 105 % of control | [7] 111 % of control | [8] 114 % of control | [9] 114 % of control

C=CC1C(C[C@@H]2c3cc(O)c(O)cc3CCN2C(C)=O)C(C(=O)OC)=CO[C@H]1OC1OC(CO)C(O)C(O)C1O (stereo not given in full)
inactive: dose: 60.0 mg/kg/injection, schedule: Q01DX005 (ip), vehicle: saline 105 % of control | dose: 120.0 mg/kg/injection, schedule: Q01DX005 (ip), vehicle: saline 103 % of control | dose: 240.0 mg/kg/injection, schedule: Q01DX005 (ip), vehicle: saline 104 % of control

CCN(CC)Cc1c[nH]c2ccccc12
inactive: dose: 12.5 mg/kg/injection, schedule: Q01DX009 (ip), vehicle: Klucel (hydroxypropylcellulose) (HPC) 102 % of control | dose: 25.0 mg/kg/injection, schedule: Q01DX009 (ip), vehicle: Klucel (hydroxypropylcellulose) (HPC) 103 % of control | dose: 50.0 mg/kg/injection, schedule: Q01DX009 (ip), vehicle: Klucel (hydroxypropylcellulose) (HPC) 97 % of control

CCCCCCCCCCC(O)C(=O)O (stereo not given)
inactive: [14] 95 % of control | [10] 89 % of control

ClCC(CCl)(CCl)CCl
inactive: dose: 50.0 mg/kg/injection, schedule: Q04DX003 (ip), vehicle: saline with Tween-80 105 % of control | [4] 98 % of control

CN(C)CCCOc1ccccc1NC1=C(Cl)C(=O)C(Nc2ccccc2OCCCN(C)C)=C(Cl)C1=O
inactive: dose: 6.25 mg/kg/injection, schedule: Q01DX005 (ip), vehicle: Klucel (hydroxypropylcellulose) (HPC) 108 % of control | dose: 12.5 mg/kg/injection, schedule: Q01DX005 (ip), vehicle: Klucel (hydroxypropylcellulose) (HPC) 99 % of control | dose: 25.0 mg/kg/injection, schedule: Q01DX005 (ip), vehicle: Klucel (hydroxypropylcellulose) (HPC) 97 % of control

Nc1ccccc1C(=O)Nc1ccc(Cl)cc1C(=O)O
inactive: dose: 50.0 mg/kg/injection, schedule: Q01DX009 (ip), vehicle: saline 101 % of control | dose: 100.0 mg/kg/injection, schedule: Q01DX009 (ip), vehicle: saline 106 % of control

NC(=NCc1ccc2c(c1)OCO2)N[N+](=O)[O-]
inactive: [15] 104 % of control | [16] 100 % of control | [17] 96 % of control

COc1nc(N(C)C)c2cnn(C3CCCCO3)c2n1 (stereo not given)
inactive: dose: 12.5 mg/kg/injection, schedule: Q04DX002 (ip), vehicle: saline with Tween-80 102 % of control | dose: 25.0 mg/kg/injection, schedule: Q04DX002 (ip), vehicle: saline with Tween-80 97 % of control

CN=C(N)NCCCCCCCCNC(N)=NC
inactive: dose: 3.13 mg/kg/injection, schedule: Q01DX009 (ip), vehicle: saline with Tween-80 112 % of control | dose: 3.13 mg/kg/injection, schedule: Q01DX009 (ip), vehicle: saline 124 % of control | [18] 109 % of control | dose: 6.25 mg/kg/injection, schedule: Q01DX009 (ip), vehicle: saline 109 % of control | [19] 112 % of control | dose: 25.0 mg/kg/injection, schedule: Q01DX009 (ip), vehicle: saline 87 % of control

CCC(C)N=C1NS(=O)(=O)c2ccccc21 (stereo not given)
inactive: [11] 105 % of control | [12] 105 % of control | [13] 102 % of control

O=c1nc(Oc2ccccc2)nc2ncccn12
inactive: [18] 101 % of control | [19] 112 % of control | [14] 114 % of control

O=C(NC(Cc1ccccc1)C(=O)O)OCC1c2ccccc2-c2ccccc21 (stereo not given)
inactive: [15] 108 % of control | [16] 105 % of control

C(=NCCC[Si]12OCCN(CCO1)CCO2)c1c[nH]c2ccccc12
inactive: [15] 104 % of control | [16] 103 % of control | [17] 102 % of control

COc1nc(N=[N+]=[N-])nc(-c2c(OC)ccc3ccccc23)n1
inactive: dose: 25.0 mg/kg/injection, schedule: Q01DX005 (ip), vehicle: saline with Tween-80 105 % of control | [11] 96 % of control | [12] 89 % of control | [13] 89 % of control

CCC(=O)Nc1nnc(SCCCCCCCCCCSc2nnc(NC(=O)CC)s2)s1
inactive: [15] 89 % of control | [16] 91 % of control | [17] 87 % of control

O=[N+]([O-])c1ccc2nc3ccccc3cc2c1
inactive: dose: 50.0 mg/kg/injection, schedule: Q04DX003 (ip), vehicle: saline 112 % of control | dose: 100.0 mg/kg/injection, schedule: Q04DX003 (ip), vehicle: saline 96 % of control | dose: 200.0 mg/kg/injection, schedule: Q04DX003 (ip), vehicle: saline 96 % of control | dose: 400.0 mg/kg/injection, schedule: Q04DX003 (ip), vehicle: saline 93 % of control

O=[N+]([O-])c1ccc(C2=C[P+](c3ccccc3)(c3ccccc3)C=C(c3ccccc3)O2)cc1
inactive: dose: 1.5 mg/kg/injection, schedule: Q01DX005 (ip), vehicle: saline with Tween-80 115 % of control | dose: 1.5 mg/kg/injection, schedule: Q01DX005 (ip), vehicle: saline 117 % of control | dose: 3.0 mg/kg/injection, schedule: Q01DX005 (ip), vehicle: saline with Tween-80 113 % of control | dose: 3.0 mg/kg/injection, schedule: Q01DX005 (ip), vehicle: saline 124 % of control
